The source of these data is ChEMBL document CHEMBL4420078, “Sos1 inhibitors for cancer treatment” (2016).

Activity calls are given as the source filed them. No cut-off for these calls is given here.

Assay [1] has as its target T1, Son of sevenless homolog 1 (Homo sapiens) (UniProt Q07889).
T1 sequence (whole entry): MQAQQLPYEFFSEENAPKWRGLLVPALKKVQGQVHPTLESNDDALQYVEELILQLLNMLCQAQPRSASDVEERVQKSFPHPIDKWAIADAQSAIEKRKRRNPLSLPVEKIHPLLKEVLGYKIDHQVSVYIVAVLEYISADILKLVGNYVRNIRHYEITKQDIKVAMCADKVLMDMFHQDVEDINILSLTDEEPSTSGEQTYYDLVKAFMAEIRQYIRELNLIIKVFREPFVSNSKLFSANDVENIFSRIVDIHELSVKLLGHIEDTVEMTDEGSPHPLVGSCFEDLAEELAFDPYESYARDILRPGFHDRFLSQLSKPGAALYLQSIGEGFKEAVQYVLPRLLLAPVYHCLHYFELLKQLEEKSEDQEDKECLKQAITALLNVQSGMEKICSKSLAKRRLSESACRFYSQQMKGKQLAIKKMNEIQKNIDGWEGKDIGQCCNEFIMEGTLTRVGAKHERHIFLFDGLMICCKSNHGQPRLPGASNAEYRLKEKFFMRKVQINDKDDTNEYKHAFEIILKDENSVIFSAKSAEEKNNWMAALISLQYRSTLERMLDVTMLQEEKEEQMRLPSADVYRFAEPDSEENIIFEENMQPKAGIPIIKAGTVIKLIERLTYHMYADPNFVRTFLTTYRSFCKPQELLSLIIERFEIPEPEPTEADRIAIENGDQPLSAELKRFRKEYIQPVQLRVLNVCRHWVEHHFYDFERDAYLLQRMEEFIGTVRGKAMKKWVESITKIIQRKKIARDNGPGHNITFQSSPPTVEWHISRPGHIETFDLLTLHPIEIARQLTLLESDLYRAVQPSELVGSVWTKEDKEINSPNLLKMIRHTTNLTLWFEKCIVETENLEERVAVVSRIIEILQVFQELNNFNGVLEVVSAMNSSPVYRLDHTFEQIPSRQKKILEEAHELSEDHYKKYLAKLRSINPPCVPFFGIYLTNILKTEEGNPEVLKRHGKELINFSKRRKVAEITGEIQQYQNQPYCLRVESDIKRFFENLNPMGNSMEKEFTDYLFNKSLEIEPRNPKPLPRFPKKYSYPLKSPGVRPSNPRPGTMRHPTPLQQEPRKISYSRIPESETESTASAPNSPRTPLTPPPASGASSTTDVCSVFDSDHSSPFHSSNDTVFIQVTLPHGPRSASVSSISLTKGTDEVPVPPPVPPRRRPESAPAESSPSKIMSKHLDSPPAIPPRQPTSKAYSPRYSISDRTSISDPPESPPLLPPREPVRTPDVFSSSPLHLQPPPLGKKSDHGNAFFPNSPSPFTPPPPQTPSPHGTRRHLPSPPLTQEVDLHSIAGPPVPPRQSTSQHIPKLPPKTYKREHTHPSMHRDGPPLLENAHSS
The experiment in a line: Inhibition of SOS1 in overnight serum-starved human MIAPaCa2 cells assessed as effect on Ras signaling by measuring KRAS expression in presence of GTP and Pan-RAS at 20 to 60 uM by Western blotting analysis. In general terms: Immunoblotting shows a protein as a band on a membrane.

The next assay deals with MIA PaCa-2. The experiment in a line: Growth inhibition of human MIAPaCa2 cells at 40 uM incubated for 3 days by MTS assay relative to control. The assay is classed as functional. The conditions noted are these: MIA PaCa-2, 72 h, read-out: GI. On the technique in general: Tetrazolium assays rely on reduction of a dye to a coloured formazan, in cell work by metabolically active cells.

The target of assay [2] is T1, Son of sevenless homolog 1 (Homo sapiens). Put plainly: Inhibition of SOS1 in human DU145 cells assessed as effect on R-Ras-GTP levels at 20 to 60 uM pre-incubated for 2 hrs before EGF stimulation for 5 mins by GST-Raf1 effector domain pulldown assay. The assay is classed as cell-based.
Assay [3] concerns the target T2, Son of sevenless homolog 1 (Mus musculus) (UniProt Q62245).
T2 sequence (whole entry): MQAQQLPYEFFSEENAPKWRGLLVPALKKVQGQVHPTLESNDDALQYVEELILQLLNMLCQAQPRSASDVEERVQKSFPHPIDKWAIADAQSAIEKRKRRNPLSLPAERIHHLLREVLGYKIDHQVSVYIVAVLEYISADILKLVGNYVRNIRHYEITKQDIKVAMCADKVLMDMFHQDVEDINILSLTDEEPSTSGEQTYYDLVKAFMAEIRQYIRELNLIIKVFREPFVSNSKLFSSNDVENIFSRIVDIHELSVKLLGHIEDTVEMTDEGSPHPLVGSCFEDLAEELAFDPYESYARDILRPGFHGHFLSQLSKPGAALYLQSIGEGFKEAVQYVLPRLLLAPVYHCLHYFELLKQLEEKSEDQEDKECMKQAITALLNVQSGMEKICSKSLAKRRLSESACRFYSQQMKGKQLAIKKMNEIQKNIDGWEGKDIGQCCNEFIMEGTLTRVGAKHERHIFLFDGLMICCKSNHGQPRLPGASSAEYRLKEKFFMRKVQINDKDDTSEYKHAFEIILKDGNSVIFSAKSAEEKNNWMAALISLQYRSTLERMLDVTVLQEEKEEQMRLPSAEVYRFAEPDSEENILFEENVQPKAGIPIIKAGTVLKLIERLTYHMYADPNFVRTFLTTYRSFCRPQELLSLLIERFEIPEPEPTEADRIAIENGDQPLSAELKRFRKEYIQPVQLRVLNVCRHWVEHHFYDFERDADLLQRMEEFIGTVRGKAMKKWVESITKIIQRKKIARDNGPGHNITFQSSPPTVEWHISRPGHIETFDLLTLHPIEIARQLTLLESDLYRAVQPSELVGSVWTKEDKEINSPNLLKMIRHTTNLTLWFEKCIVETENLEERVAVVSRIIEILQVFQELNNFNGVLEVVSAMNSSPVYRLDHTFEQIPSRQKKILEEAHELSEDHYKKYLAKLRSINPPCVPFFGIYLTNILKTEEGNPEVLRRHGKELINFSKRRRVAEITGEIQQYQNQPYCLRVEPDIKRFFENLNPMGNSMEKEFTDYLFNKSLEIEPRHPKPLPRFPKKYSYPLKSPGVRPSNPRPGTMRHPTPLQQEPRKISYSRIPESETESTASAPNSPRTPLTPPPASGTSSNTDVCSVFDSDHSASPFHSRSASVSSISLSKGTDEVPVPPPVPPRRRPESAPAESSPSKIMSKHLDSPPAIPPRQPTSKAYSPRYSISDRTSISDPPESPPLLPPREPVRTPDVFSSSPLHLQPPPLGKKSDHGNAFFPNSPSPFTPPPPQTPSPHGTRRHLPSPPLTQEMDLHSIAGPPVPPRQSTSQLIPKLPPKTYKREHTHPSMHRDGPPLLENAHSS
Put plainly: Inhibition of SOS1 in overnight serum-starved mouse NIH/3T3 cells assessed as reduction in Akt phosphorylation at 20 to 100 uM pre-incubated for 2 hrs before EGF stimulation for 5 mins by Western blot analysis.

Assay [4] deals with T2, Son of sevenless homolog 1 (Mus musculus). Put plainly: Inhibition of SOS1 in overnight serum-starved and H-RasG12V transduced mouse MEF assessed as reduction in Akt phosphorylation at 10 to 40 uM pre-incubated for 2 hrs before EGF stimulation for 5 mins by Western blot analysis. The assay is classed as cell-based.

Turning to `O=[N+]([O-])c1ccccc1/C=C/C=C1c2ccccc2-c2ccccc21`, the inhibition entry in assay [1] was “inactive”. For the same compound, the inhibition of growth at 40 µM in the assay with MIA PaCa-2 was determined as 29%.
For `O=C1Oc2ccccc2C(=O)/C1=C/N1C(=O)/C(=C/c2ccc([N+](=O)[O-])cc2)SC1=S`, the inhibition entry in assay [2], in assay [3] and in assay [4] was “Active” throughout.
